In patent US20240317739A1, “NOVEL UREA DERIVATIVE COMPOUND AS RON INHIBITOR” (LG CHEM, LTD., priority 2021, published 2024):
pIC50: −log10 of the molar value.

Tests used:
cMET = cMET (Homo sapiens, UniProt P08581); assay: Evaluation of inhibitory activity against MET (TR-FRET); assay type: biochemical; conditions: TR-FRET kinase assay, cMET protein
Procedure: In addition, in order to measure the enzyme activity inhibition for cMET, the evaluation was performed in the same manner as the enzyme activity inhibition measurement experiment for the RON.
(§1) Specifically, the compound was prepared to a concentration of 1 mM with 100% DMSO and was diluted 10 times in a stepwise manner through 3-fold dilution. 2 ul of the compound diluted in a stepwise manner was added to a 96-well-plate containing 48 ul of a 1× kinase reaction buffer (50 mM HEPES (pH 7.4), 0.05% BSA, 0.005% Tween-20, 1 mM DTT, 0.5 mM MnCl2, 20 mM MgCl2).
The cMET protein was diluted to a concentration of 263 nM with a cMET storage buffer (50 mM Tris-HCl (pH 7.5), 150 mM NaCl, 0.05% Brij35, 1 mM DTT, 10% Glycerol), and then diluted again to a concentration of 2 nM with a 1× kinase reaction buffer. As a substrate cocktail, a MET-specific substrate mixture (5 uM TK peptide, […]) at a concentration 2 times the final reaction concentration.
(§2) Thereafter, a 384-well-plate was prepared, and 2.5 μl of each of the diluted compounds of Examples was added to a corresponding well of experimental group wells, and 2.5 μl of a 4% DMSO solution was dispensed into high control wells and low control wells.
(§3) Thereafter, 2.5 μL of 2 nM cMET was dispensed into the high control wells and the experimental group wells, and 2.5 μL of a 1× kinase reaction buffer was added to the low control wells, and the RON and the reaction buffer were centrifuged at room temperature for 40 seconds at 1000 RPM, and then incubated at room temperature for 20 to 30 minutes. Then, 5 uL of a substrate cocktail (2×) was dispensed into all wells, centrifuged at room temperature for 40 seconds at 1000 RPM, and then incubated at room temperature for 60 minutes. Thereafter, 5 uL of 90 mM EDTA was added to all wells to terminate the reaction, and then incubated again at room temperature for 5 minutes. Thereafter, 5 uL of a 4× phosphotyrosine antibody (Perkin Elmer) containing europium was added to all wells, and then incubated at room temperature for 60 minutes. After the incubation, the 384-well-plate was read with a Vison plate reader. At this time, the excitation wavelength was 340 nm, and the emission wavelength was 620 nm and 665 nm. The 1050 value of the compound of each Example was derived using the GraphPd Prism7 program.

RON = RON (Homo sapiens, UniProt Q04912); assay: Evaluation of inhibitory activity against RON (TR-FRET); assay type: biochemical; conditions: TR-FRET kinase assay, RON protein
Chain of RON (Q04912 25-1400, species assumed): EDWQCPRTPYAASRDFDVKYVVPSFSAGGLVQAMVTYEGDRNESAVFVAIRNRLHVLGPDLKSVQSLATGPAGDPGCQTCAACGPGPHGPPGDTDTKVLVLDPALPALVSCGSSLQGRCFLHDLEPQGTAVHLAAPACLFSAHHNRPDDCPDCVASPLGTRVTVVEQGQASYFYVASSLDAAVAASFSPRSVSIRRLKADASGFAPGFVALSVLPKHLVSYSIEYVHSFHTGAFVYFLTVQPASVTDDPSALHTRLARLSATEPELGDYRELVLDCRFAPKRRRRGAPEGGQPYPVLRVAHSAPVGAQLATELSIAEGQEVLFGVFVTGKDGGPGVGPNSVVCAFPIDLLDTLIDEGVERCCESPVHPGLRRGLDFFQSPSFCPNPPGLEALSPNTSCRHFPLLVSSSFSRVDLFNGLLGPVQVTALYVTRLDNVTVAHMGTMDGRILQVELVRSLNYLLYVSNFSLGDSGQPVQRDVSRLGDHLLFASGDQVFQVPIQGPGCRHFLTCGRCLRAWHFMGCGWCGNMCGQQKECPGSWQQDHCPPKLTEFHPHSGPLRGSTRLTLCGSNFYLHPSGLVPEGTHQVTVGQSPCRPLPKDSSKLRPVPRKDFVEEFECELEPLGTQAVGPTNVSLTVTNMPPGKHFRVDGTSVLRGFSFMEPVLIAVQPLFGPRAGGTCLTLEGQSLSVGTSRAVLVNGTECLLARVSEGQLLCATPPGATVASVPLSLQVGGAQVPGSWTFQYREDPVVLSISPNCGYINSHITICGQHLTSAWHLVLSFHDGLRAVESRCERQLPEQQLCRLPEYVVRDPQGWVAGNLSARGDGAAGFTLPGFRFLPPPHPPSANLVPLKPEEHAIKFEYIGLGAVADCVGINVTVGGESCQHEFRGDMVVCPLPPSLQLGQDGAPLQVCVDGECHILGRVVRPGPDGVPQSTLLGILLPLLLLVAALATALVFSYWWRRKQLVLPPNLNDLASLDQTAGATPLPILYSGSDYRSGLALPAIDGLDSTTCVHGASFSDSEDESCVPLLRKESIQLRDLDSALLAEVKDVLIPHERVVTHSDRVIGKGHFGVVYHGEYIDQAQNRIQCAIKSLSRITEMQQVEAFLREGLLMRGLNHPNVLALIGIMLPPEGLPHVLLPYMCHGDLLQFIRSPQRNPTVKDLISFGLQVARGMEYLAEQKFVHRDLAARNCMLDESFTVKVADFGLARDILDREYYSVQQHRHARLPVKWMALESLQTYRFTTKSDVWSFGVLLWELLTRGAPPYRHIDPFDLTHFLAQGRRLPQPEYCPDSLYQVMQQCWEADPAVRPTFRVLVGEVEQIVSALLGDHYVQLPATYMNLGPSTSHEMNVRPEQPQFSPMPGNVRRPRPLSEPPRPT
Procedure: In order to measure the inhibitory activity of each of the compounds of Examples against RON, the IC50 of each of the compounds was measured using a Time-Resolved Fluorescence Energy Transfer Chemistry (TR-FRET).
as §1, with “a 1×kinase” for “a 1× kinase”, “7.4), 0.01%” for “7.4), 0.05% BSA, 0.005%”, “Tween-20, 5” for “Tween-20, 1”, “mM Na3VO4, 2 mM EGTA, 10” for “mM MnCl2, 20”
The RON protein was diluted to a concentration of 49.3 nM with an RON storage buffer (50 mM Tris-HCl (pH 7.5), 150 mM NaCl, 0.5 mM EDTA, 0.02% Triton X-100), and then diluted again to a concentration of 0.4 nM with a 1×kinase reaction buffer. As a substrate cocktail, a RON-specific substrate mixture (40 uM ULight-labeled Poly GT, 100 nM ATP) at a concentration 2 times the final reaction concentration.
as §2
as §3, with “of 0.4” for “of 2”, “nM RON” for “nM cMET”, “of 30” for “of 90”, “The IC50” for “The 1050”

Chain of cMET (P08581 25-1390): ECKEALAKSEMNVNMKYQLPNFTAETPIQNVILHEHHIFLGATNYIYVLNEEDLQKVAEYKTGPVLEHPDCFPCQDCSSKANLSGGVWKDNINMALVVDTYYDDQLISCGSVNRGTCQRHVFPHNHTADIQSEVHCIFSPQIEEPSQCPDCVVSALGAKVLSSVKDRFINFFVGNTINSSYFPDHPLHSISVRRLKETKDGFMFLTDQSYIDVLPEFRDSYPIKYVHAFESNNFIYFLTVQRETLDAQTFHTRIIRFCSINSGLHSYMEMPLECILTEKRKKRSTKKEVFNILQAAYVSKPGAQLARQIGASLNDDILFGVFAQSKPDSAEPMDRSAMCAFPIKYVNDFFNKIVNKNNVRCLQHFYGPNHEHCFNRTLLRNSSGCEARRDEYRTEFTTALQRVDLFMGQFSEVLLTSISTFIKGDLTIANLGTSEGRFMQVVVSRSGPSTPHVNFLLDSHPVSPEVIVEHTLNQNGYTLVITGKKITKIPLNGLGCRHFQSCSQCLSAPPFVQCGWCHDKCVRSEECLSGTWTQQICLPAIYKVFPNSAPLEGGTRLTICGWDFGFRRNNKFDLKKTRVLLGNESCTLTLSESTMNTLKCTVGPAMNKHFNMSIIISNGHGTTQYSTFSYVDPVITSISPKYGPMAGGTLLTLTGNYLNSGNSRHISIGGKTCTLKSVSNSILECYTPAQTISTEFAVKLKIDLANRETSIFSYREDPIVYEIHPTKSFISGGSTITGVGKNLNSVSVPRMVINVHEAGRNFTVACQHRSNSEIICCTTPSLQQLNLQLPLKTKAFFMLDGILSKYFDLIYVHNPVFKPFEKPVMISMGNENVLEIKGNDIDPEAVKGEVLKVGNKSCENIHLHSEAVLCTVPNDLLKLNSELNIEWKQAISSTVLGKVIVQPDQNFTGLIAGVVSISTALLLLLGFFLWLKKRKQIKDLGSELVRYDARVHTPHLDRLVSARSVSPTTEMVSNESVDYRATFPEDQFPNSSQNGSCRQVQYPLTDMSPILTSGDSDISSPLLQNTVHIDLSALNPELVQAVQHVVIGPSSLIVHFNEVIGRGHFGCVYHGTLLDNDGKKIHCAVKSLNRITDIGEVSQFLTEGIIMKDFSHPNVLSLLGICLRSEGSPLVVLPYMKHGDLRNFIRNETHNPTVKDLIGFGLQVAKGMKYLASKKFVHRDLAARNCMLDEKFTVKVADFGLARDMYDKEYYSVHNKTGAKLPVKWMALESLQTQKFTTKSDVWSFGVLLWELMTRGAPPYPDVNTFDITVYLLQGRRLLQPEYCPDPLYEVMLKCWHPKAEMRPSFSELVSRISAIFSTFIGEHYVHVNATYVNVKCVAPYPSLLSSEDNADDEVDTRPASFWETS

## Cc1cccc(-n2ncc(C(=O)Nc3ccc(Oc4ccnc5[nH]c(=O)n(C(C)C)c45)c(F)c3)c2C(F)(F)F)n1 [Example 18, N-(3-fluoro-4-((1-isopropyl-2-oxo-2,3-dihydro-1H-imidazo[4,5-b]pyridine-7-yl)oxy)phenyl)-1-(6-methylpyridine-2-yl)-5-(trifluoromethyl)-1H-pyrazole-4-carboxamide]
cMET
  pIC50: 5.30 to 6.30
RON
  pIC50: > 7.30

## CC(C)n1c(=O)[nH]c2nccc(Oc3ccc(NC(=O)c4cnn(-c5ncccc5Br)c4C(F)(F)F)cc3F)c21 [Example 19, 1-(3-bromopyridine-2-yl)-N-(3-fluoro-4-((1-isopropyl-2-oxo-2,3-dihydro-1H-imidazo[4,5-b]pyridine-7-yl)oxy)phenyl)-5-(trifluoromethyl)-1H-pyrazole-4-carboxamide]
cMET
  pIC50: 5.30 to 6.30
RON
  pIC50: > 7.30

## CC(C)n1c(=O)[nH]c2nccc(Oc3ccc(NC(=O)c4cnn(-c5nccc6ccccc56)c4C(F)(F)F)cc3F)c21 [Example 20, N-(3-fluoro-4-((1-isopropyl-2-oxo-2,3-dihydro-1H-imidazo[4,5-b]pyridine-7-yl)oxy)phenyl)-1-(isoquinoline-1-yl)-5-(trifluoromethyl)-1H-pyrazole-4-carboxamide]
cMET
  pIC50: 5.30 to 6.30
RON
  pIC50: > 7.30

## CC(C)n1c(=O)[nH]c2nccc(Oc3ccc(NC(=O)c4cnn(-c5ccc(F)cn5)c4C(F)(F)F)cc3F)c21 [Example 21, N-(3-fluoro-4-((1-isopropyl-2-oxo-2,3-dihydro-1H-imidazo[4,5-b]pyridine-7-yl)oxy)phenyl)-1-(5-fluoropyridine-2-yl)-5-(trifluoromethyl)-1H-pyrazole-4-carboxamide]
cMET
  pIC50: < 5.30
RON
  pIC50: > 7.30

## CC(C)n1c(=O)[nH]c2nccc(Oc3ccc(NC(=O)c4cnn(-c5cccc(C(F)(F)F)n5)c4C(F)(F)F)cc3F)c21 [Example 22, N-(3-fluoro-4-((1-isopropyl-2-oxo-2,3-dihydro-1H-imidazo[4,5-b]pyridine-7-yl)oxy)phenyl)-5-(trifluoromethyl)-1-(6-(trifluoromethyl)pyridine-2-yl)-1H-pyrazole-4-carboxamide]
cMET
  pIC50: < 5.30
RON
  pIC50: 6.30 to 7.30

## CC(C)n1c(=O)[nH]c2nccc(Oc3ccc(NC(=O)c4cnn(-c5cccnc5)c4C(F)(F)F)cc3F)c21 [Example 23, N-(3-fluoro-4-((1-isopropyl-2-oxo-2,3-dihydro-1H-imidazo[4,5-b]pyridine-7-yl)oxy)phenyl)-1-(pyridine-3-yl)-5-(trifluoromethyl)-1H-pyrazole-4-carboxamide]
cMET
  pIC50: 5.30 to 6.30
RON
  pIC50: > 7.30

## CC(C)n1c(=O)[nH]c2nccc(Oc3ccc(NC(=O)c4cnn(-c5ccncc5)c4C(F)(F)F)cc3F)c21 [Example 24, N-(3-fluoro-4-((1-isopropyl-2-oxo-2,3-dihydro-1H-imidazo[4,5-b]pyridine-7-yl)oxy)phenyl)-1-(pyridine-4-yl)-5-(trifluoromethyl)-1H-pyrazole-4-carboxamide]
cMET
  pIC50: 5.30 to 6.30
RON
  pIC50: > 7.30

## CC(C)n1c(=O)[nH]c2nccc(Oc3ccc(NC(=O)c4cnn(-c5ncccn5)c4C(F)(F)F)cc3F)c21 [Example 25, N-(3-fluoro-4-((1-isopropyl-2-oxo-2,3-dihydro-1H-imidazo[4,5-b]pyridine-7-yl)oxy)phenyl)-1-(pyrimidine-2-yl)-5-(trifluoromethyl)-1H-pyrazole-4-carboxamide]
cMET
  pIC50: 5.30 to 6.30
RON
  pIC50: > 7.30

## Cc1ccnc(-n2ncc(C(=O)Nc3ccc(Oc4ccnc5[nH]c(=O)n(C(C)C)c45)c(F)c3)c2C(F)(F)F)n1 [Example 26, N-(3-fluoro-4-((1-isopropyl-2-oxo-2,3-dihydro-1H-imidazo[4,5-b]pyridine-7-yl)oxy)phenyl)-1-(4-methylpyrimidine-2-yl)-5-(trifluoromethyl)-1H-pyrazole-4-carboxamide]
cMET
  pIC50: 5.30 to 6.30
RON
  pIC50: > 7.30

## CC(C)n1c(=O)[nH]c2nccc(Oc3ccc(NC(=O)c4cnn(-c5ccncn5)c4C(F)(F)F)cc3F)c21 [Example 27, N-(3-fluoro-4-((1-isopropyl-2-oxo-2,3-dihydro-1H-imidazo[4,5-b]pyridine-7-yl)oxy)phenyl)-1-(pyrimidine-4-yl)-5-(trifluoromethyl)-1H-pyrazole-4-carboxamide]
cMET
  pIC50: 5.30 to 6.30
RON
  pIC50: > 7.30

## COc1cccnc1-n1ncc(C(=O)Nc2ccc(Oc3ccnc4[nH]c(=O)n(C(C)C)c34)c(F)c2)c1C(F)(F)F [Example 28, N-(3-fluoro-4-((1-isopropyl-2-oxo-2,3-dihydro-1H-imidazo[4,5-b]pyridine-7-yl)oxy)phenyl)-1-(3-methoxypyridine-2-yl)-5-(trifluoromethyl)-1H-pyrazole-4-carboxamide]
cMET
  pIC50: 5.30 to 6.30
RON
  pIC50: > 7.30

## CCc1cccnc1-n1ncc(C(=O)Nc2ccc(Oc3ccnc4[nH]c(=O)n(C(C)C)c34)c(F)c2)c1C(F)(F)F [Example 29, 1-(3-ethylpyridine-2-yl)-N-(3-fluoro-4-((1-isopropyl-2-oxo-2,3-dihydro-1H-imidazo[4,5-b]pyridine-7-yl)oxy)phenyl)-5-(trifluoromethyl)-1H-pyrazole-4-carboxamide]
cMET
  pIC50: 5.30 to 6.30
RON
  pIC50: > 7.30

## CCc1ccnc(-n2ncc(C(=O)Nc3ccc(Oc4ccnc5[nH]c(=O)n(C(C)C)c45)c(F)c3)c2C(F)(F)F)c1 [Example 30, 1-(4-ethylpyridine-2-yl)-N-(3-fluoro-4-((1-isopropyl-2-oxo-2,3-dihydro-1H-imidazo[4,5-b]pyridine-7-yl)oxy)phenyl)-5-(trifluoromethyl)-1H-pyrazole-4-carboxamide]
cMET
  pIC50: 5.30 to 6.30
RON
  pIC50: 6.30 to 7.30

## CC(C)n1c(=O)[nH]c2nccc(Oc3ccc(NC(=O)c4cnn(-c5cc(C6CC6)ccn5)c4C(F)(F)F)cc3F)c21 [Example 31, 1-(4-cyclopropylpyridine-2-yl)-N-(3-fluoro-4-((1-isopropyl-2-oxo-2,3-dihydro-1H-imidazo[4,5-b]pyridine-7-yl)oxy)phenyl)-5-(trifluoromethyl)-1H-pyrazole-4-carboxamide]
cMET
  pIC50: 5.30 to 6.30
RON
  pIC50: 6.30 to 7.30

## CC(C)n1c(=O)[nH]c2nccc(Oc3ccc(NC(=O)c4cnn(-c5cc(C6=CCOCC6)ccn5)c4C(F)(F)F)cc3F)c21 [Example 32, 1-(4-(3,6-dihydro-2H-pyran-4-yl)pyridine-2-yl)-N-(3-fluoro-4-((1-isopropyl-2-oxo-2,3-dihydro-1H-imidazo[4,5-b]pyridine-7-yl)oxy)phenyl)-5-(trifluoromethyl)-1H-pyrazole-4-carboxamide]
cMET
  pIC50: 5.30 to 6.30
RON
  pIC50: 6.30 to 7.30

## COc1ccnc(-n2ncc(C(=O)Nc3ccc(Oc4ccnc5[nH]c(=O)n(C(C)C)c45)c(F)c3)c2C(F)(F)F)c1 [Example 33, N-(3-fluoro-4-((1-isopropyl-2-oxo-2,3-dihydro-1H-imidazo[4,5-b]pyridine-7-yl)oxy)phenyl)-1-(4-methoxypyridine-2-yl)-5-(trifluoromethyl)-1H-pyrazole-4-carboxamide]
cMET
  pIC50: 5.30 to 6.30
RON
  pIC50: > 7.30
